Measurements from patent publication US12435061B2 (priority 2020, dated 2025).
Structures can show the parent of a compound that is named as a salt. Where two headings read alike, the source gives them in different places.

Biological target: hTRPV3 (Homo sapiens (Human), UniProt Q8NET8)
Assay: Whole-cell patch clamp, hTRPV3 Phase 1 / Phase 2 currents
Assay type: cell-based
In short: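 Currents are activated by 20 μM 2-APB or by perfusate at 28 °C or warmer, in Ringer's solution, and quantified at ±80 mV.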

[1] = Phase 1 current, inward, whole-cell patch clamp, read-out: hTRPV3 Patch P1 Inwd
[2] = Phase 1 current, read-out: hTRPV3 (nM) (Phase 1)
[3] = Phase 2 current, inward, whole-cell patch clamp, read-out: hTRPV3 Patch P2 Inwd
[4] = Phase 2 current, read-out: hTRPV3 (nM) (Phase 2)
[5] = Phase 1 current, human TRPV3, read-out: hTRPV3 (nM) Phase 1

Chain of hTRPV3 (Q8NET8 whole entry): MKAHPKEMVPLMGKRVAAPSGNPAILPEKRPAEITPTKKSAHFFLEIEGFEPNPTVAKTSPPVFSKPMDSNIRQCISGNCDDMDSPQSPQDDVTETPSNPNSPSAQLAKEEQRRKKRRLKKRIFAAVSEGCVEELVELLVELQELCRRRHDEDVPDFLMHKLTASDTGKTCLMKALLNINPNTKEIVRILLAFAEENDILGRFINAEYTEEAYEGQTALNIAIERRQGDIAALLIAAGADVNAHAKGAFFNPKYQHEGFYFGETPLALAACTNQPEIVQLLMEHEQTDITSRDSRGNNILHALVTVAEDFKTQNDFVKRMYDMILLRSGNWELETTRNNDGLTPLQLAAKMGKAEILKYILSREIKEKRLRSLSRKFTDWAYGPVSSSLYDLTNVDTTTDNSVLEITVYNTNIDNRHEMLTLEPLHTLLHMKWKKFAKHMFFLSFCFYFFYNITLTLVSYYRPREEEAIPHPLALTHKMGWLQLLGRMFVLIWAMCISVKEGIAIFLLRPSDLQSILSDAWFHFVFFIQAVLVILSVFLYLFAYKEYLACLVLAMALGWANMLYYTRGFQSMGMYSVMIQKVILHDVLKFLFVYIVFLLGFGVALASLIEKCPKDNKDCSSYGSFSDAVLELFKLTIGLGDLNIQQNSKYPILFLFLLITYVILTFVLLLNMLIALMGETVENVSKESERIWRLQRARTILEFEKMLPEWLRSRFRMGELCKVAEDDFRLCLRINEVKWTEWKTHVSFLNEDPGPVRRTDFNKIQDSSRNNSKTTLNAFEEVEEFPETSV

| Structure (SMILES) | IC50 [1] | IC50 [5] | further results |
| --- | --- | --- | --- |
| CC(C)NC(=O)c1ccccc1N1CC[C@@H](Oc2ccc(C(F)(F)F)cn2)C1 [Compound 1-49, (R)—N-isopropyl-2-(3-(5-(trifluoromethyl)pyridin-2-yloxy)pyrrolidin-1-yl)benzamide] | > 1000 nM | – | – |
| O=C(c1ccc(Cl)cc1)c1ccc(N2CC[C@H](Oc3ncccc3Cl)C2)c(CCO)c1 [Compound 1-291, (S)-(4-chlorophenyl)(4-(3-(3-chloropyridin-2-yloxy)pyrrolidin-1-yl)-3-(2-hydroxyethyl)phenyl)methanone] | 100 to 1000 nM | – | IC50 [2]: ~188 nM; IC50 [3]: 100 to 1000 nM; IC50 [4]: ~217 nM |
| Cc1cccc(C(=O)N2CCC(c3ccc(Oc4ccccc4C(C)C)cc3CO)C2)n1 (centres unmarked) [Compound 2-19, (3-(2-(hydroxymethyl)-4-(2-isopropylphenoxy)phenyl)pyrrolidin-1-yl)(6-methylpyridin-2-yl)methanone] | 10 to 100 nM | 191 nM | – |
| FC(F)(F)c1ccc(O[C@H]2CCN(c3ccccc3OC3CCCC3)C2)nc1 [Compound 1-25, (S)-2-(1-(2-(cyclopentyloxy)phenyl)pyrrolidin-3-yloxy)-5-(trifluoromethyl)pyridine] | > 1000 nM | – | – |
| N#Cc1ccc(-c2ccc(N3CC[C@H](Oc4ccc(C(F)(F)F)cn4)C3)c(CO)c2)cc1 [Compound 1-252, (S)-3′-(hydroxymethyl)-4′-(3-(5-(trifluoromethyl)pyridin-2-yloxy)pyrrolidin-1-yl)biphenyl-4-carbonitrile] | 100 to 1000 nM | – | IC50 [2]: 886 nM |
| CCc1ccccc1-c1ccc(C2CCN(C(=O)C3CCN(C)CC3)C2)c(CO)c1 (centres unmarked) [Compound 2-115] | – | > 3200 nM | – |
| CC(C)Oc1ccccc1N1CC[C@@H](Oc2ccc(C(F)(F)F)cn2)C1 [Compound 1-37, (R)-2-(1-(2-isopropoxyphenyl)pyrrolidin-3-yloxy)-5-(trifluoromethyl)pyridine] | > 1000 nM | – | – |
| COc1cc(-c2ccccc2)ccc1N1CC[C@@H](Oc2ncc(C(F)(F)F)cc2Cl)C1 [Compound 1-120, (R)-3-chloro-2-(1-(3-methoxybiphenyl-4-yl)pyrrolidin-3-yloxy)-5-(trifluoromethyl)pyridine] | – | – | IC50 [2]: > 3200 nM; IC50 [4]: > 3200 nM; IC50 (hTRPV3 Patch P1 Inwd (nM), Phase 1 current, inward, whole-cell patch clamp): > 1000 nM; IC50 (hTRPV3 Patch P2 Inwd (nM), Phase 2 current, inward, whole-cell patch clamp): > 1000 nM |
| O=C(c1ccc(C(F)(F)F)cn1)N1CCC(c2ccc(-c3ccccc3)nc2CO)C1 (centres unmarked) [Compound 2-81] | 100 to 1000 nM | 268 nM | IC50 (Phase 2 current, human TRPV3, read-out: hTRPV3 (nM) Phase 2): 298 nM; IC50 [3]: 100 to 1000 nM |
| CC(C)(C)OC(=O)c1ccccc1N1CC[C@H](Oc2ccc(C(F)(F)F)cn2)C1 [Compound 1-54, (S)-tert-butyl 2-(3-(5-(trifluoromethyl)pyridin-2-yloxy)pyrrolidin-1-yl)benzoate] | > 1000 nM | – | – |
| Cc1ccc(O[C@H]2CCN(c3ccc(-c4ccccc4C)nc3CCO)C2)nc1 [Compound 1-200, (S)-2-(3-(3-(5-methylpyridin-2-yloxy)pyrrolidin-1-yl)-6-o-tolylpyridin-2-yl)ethanol] | 100 to 1000 nM | – | IC50 [2]: 709 nM |
| CCc1ccccc1Oc1ccc(C2CCN(C(=O)c3ncccc3Cl)C2)c(C(N)=O)c1 (centres unmarked) [Compound 2-37, 2-(1-(3-chloropicolinoyl)pyrrolidin-3-yl)-5-(2-ethylphenoxy)benzamide] | > 1000 nM | ~2190 nM | – |
| Cc1cccnc1CN1CCC(c2ccc(Oc3ccccc3C(C)C)cc2CO)C1 (centres unmarked) [Compound 2-89, (5-(2-isopropylphenoxy)-2-(1-((3-methylpyridin-2-yl)methyl)pyrrolidin-3-yl)phenyl)methanol hydrochloride] | > 1000 nM | 1230 nM | – |
| N#Cc1ccc(N2CC[C@@H](Oc3ccc(C(F)(F)F)cn3)C2)c(C(N)=O)c1 [Compound 1-34, (R)-5-cyano-2-(3-(5-(trifluoromethyl)pyridin-2-yloxy)pyrrolidin-1-yl)benzamide] | > 1000 nM | – | – |
| CCc1ccccc1-c1ccc(C2CCN(C(=O)c3cc(OC)ccn3)C2)c(CO)c1 (centres unmarked) [Compound 2-63, (3-(2′-ethyl-3-(hydroxymethyl)biphenyl-4-yl)pyrrolidin-1-yl)(4-methoxypyridin-2-yl)methanone] | 100 to 1000 nM | 235 nM | – |
| CCc1cccnc1Oc1ccc(C2CCN(C(=O)c3ccc(F)cn3)C2)c(CO)c1 (centres unmarked) [Compound 2-44, (3-(4-(3-ethylpyridin-2-yloxy)-2-(hydroxymethyl)phenyl)pyrrolidin-1-yl)(5-fluoropyridin-2-yl)methanone] | > 1000 nM | > 3200 nM | – |
| CCOc1ccccc1-c1ccc(C2CCN(C(=O)c3ccc(F)cn3)C2)c(CO)c1 (centres unmarked) [Compound 2-59, (3-(2′-ethoxy-3-(hydroxymethyl)biphenyl-4-yl)pyrrolidin-1-yl)(5-fluoropyridin-2-yl)methanone] | 10 to 100 nM | 62.1 nM | – |
| CCc1ccccc1Oc1ccc(N2CC[C@H](Oc3ccc(C)cn3)C2)c(CO)n1 [Compound 1-214, (S)-(6-(2-ethylphenoxy)-3-(3-(5-methylpyridin-2-yloxy)pyrrolidin-1-yl)pyridin-2-yl)methanol] | – | – | hTRPV3 (nM) (Phase 1) (Phase 1 current): Incomplete Block (Phase 1) |
| CC(C)(C)OC(=O)c1ccccc1N1CC[C@@H](Oc2ccc(C(F)(F)F)cn2)C1 [Compound 1-55, (R)-tert-butyl 2-(3-(5-(trifluoromethyl)pyridin-2-yloxy)pyrrolidin-1-yl)benzoate] | > 1000 nM | – | IC50 [3]: > 1000 nM |
| NCc1ccccc1N1CC[C@@H](Oc2ccc(C(F)(F)F)cn2)C1 [Compound 1-20, (R)-(2-(3-(5-(trifluoromethyl)pyridin-2-yloxy)pyrrolidin-1-yl)phenyl)methanamine] | > 1000 nM | – | IC50 [3]: > 1000 nM |
| NC(=O)c1cc(-c2cccnc2)ccc1N1CC[C@@H](Oc2ccccn2)C1 [Compound 1-87, hydrochloride] | > 1000 nM | – | – |
| COCc1ccc(C(O)c2ccc(N3CC[C@H](Oc4ncccc4Cl)C3)c(CO)c2)cc1 (stereo partly drawn) [Compound 1-290, (4-((S)-3-(3-chloropyridin-2-yloxy)pyrrolidin-1-yl)-3-(hydroxymethyl)phenyl)(4-(methoxymethyl)phenyl)methanol] | > 1000 nM | – | IC50 [2]: > 3200 nM; IC50 [3]: > 1000 nM; IC50 [4]: > 3200 nM |
| NC(=O)c1cc(-c2ccccc2)cnc1N1CC[C@@H](Oc2ccc(C(F)(F)F)cn2)C1 [Compound 1-92, (R)-5-phenyl-2-(3-(5-(trifluoromethyl)pyridin-2-yloxy)pyrrolidin-1-yl)nicotinamide] | – | – | hTRPV3 (nM) (Phase 1) (Phase 1 current): Incomplete Block (Phase 1) Incomplete Block (Phase 2); hTRPV3 (nM) (Phase 2) (Phase 2 current): Incomplete Block (Phase 1) Incomplete Block (Phase 2) |
| NC(=O)c1cc(-c2ccncc2)ccc1N1CC[C@@H](Oc2ccccn2)C1 [Compound 1-79, (R)-2-(3-(pyridin-2-yloxy)pyrrolidin-1-yl)-5-(pyridin-4-yl)benzamide] | > 1000 nM | – | IC50 [2]: > 3200 nM; IC50 [3]: > 1000 nM; IC50 [4]: > 3200 nM |
| NC(=O)c1cc(-c2ccccc2)ccc1N1CCC(Oc2ccc3ccccc3n2)C1=O (centres unmarked) [Compound 1-123, 4-(2-oxo-3-(quinolin-2-yloxy)pyrrolidin-1-yl)biphenyl-3-carboxamide] | > 1000 nM | – | IC50 [2]: > 3200 nM |
| COc1ccnc(C(=O)N2CCC(c3ccc(-c4ccccc4C4CC4)cc3CO)C2)c1 (centres unmarked) [Compound 2-75, (3-(2′-cyclopropyl-3-(hydroxymethyl)biphenyl-4-yl)pyrrolidin-1-yl)(4-methoxypyridin-2-yl)methanone] | 100 to 1000 nM | 215 nM | – |
| N#Cc1ccccc1N1CCC(Oc2ccc(C(F)(F)F)cn2)C1 (centres unmarked) [Compound 1-5] | > 1000 nM | – | IC50 [3]: > 1000 nM |
